Measurements taken from patent US4749710A, “Immunosuppressive agents” (priority 1985, dated 1988).
Where two headings read alike, the source gives them in different places.

Legend:
[1] = test system: human cytotoxic T-lymphocyte responses; test: Inhibition of human CTL responses (mixed leukocyte-tumor cultures, HT-144 melanoma, ^51 Cr release); format: cell-based; details: for inhibition at 0.1 µM / inhibition at 1 µM: Homo sapiens, T-lymphocyte, read-out: Inhibition of CTL activity (%)
Procedure: Human cells for the tests described below were taken from four donors designated I, II, III, and IV in the tables below.
Stock solutions of Vitamin D derivatives were prepared as they were prepared above in the murine tests.
Human cytotoxic T-lymphocytes were generated in mixed leukocyte-tumor cultures by known methods. Specifically, blood from normal volunteer donors was drawn into heparinized syringes, diluted 1:1 with calcium-magnesium free Hanks' balanced salt solution (Ca-Mg free HBSS), and layered over lymphocyte separation medium (Litton Bionetics, Kensington, MD). After centrifugation at 500xg for 20-30 min at room temperature, peripheral blood mononuclear cells were harvested from the interface. The peripheral blood mononuclear leukocytes were centrifuged and resuspended in Ca-Mg free HBSS and were subsequently separated from platelets by centrifugation at 500xg through a solution of 20% sucrose and 1% human AB serum in Ca-Mg free HBSS. The cells were washed once and finally resuspended in tissue culture medium. […] Cells to be used as stimulator cells in mixed leukocyte-tumor cultures were irradiated with 10,000 rads of gamma irradiation to preclude proliferation in culture. Mixed leukocyte-tumor cell cultures were established in 16 mm tissue culture wells at a final volume of 1.5 ml per well containing 2×10^6 peripheral blood mononuclear leukocytes and 5×10^4 irradiation-inactivated stimulator cells. In order to prevent the generation of nonspecific cytotoxic cells in these cultures, hydrocortisone sodium succinate was added to each culture at a final concentration of 1×10^-5 M. Mixed leukocyte-tumor cultures were incubated for 6 days in a humidified atmosphere of 5% CO2 in air.
Labelled target cells were washed free of unbound isotope by 3 serial washes in tissue culture medium and were finally resuspended at a concentration of 5×10^4 cells per ml.
Assays of human cytotoxic T-lymphocytes were done by known methods. Specifically, one-tenth ml aliquots of ^51 Cr-labelled target cell suspension were added to "half area" microtest plates and were incubated at 37° C. for 18 hours in a humidified atmosphere of 5% CO2 in air to permit the cells to adhere and spread on the floor of each well. Culture medium was then aspirated from each well and was replaced with 0.1 ml of tissue culture medium containing cells harvested from mixed leukocyte-tumor cultures which had been processed as described for murine mixed leukocute cultures, above. Control wells for measurement of spontaneous ^51 Cr release received medium without effector cells and wells for measurement of maximal releasable ^51 Cr received 0.1 ml of 2% sodium dodecyl sulfate in distilled water. After overnight incubation at 37° in a humidified atmosphere of 5% CO2 in air, 0.05 ml of cell-free supernatant was withdrawn from each well and the amount of released ^51 Cr was quantitated using a gamma spectrometer. The percentage of specific ^51 Cr release (CTL activity) and the percent inhibition of CTL activity were calculated with the same formulas used above for the murine CTL assay.
Tests conducted on human cytotoxic T-lymphocyte responses are reported as the mean±standard error of the mean from triplicate ^51 Cr release determinations on pooled cells from duplicate control or test cultures.

[2] = test system: murine cytotoxic T-lymphocyte responses; test: cells; format: cell-based; details: for CTL activity (% specific ^51 Cr release): 90:1 effector to target
From the text: Immunosuppressive Activity of Vitamin D compounds on cytotoxic T lymphocyte Responses-General Test Description
Cytotoxic thymus-derived lymphocytes (CTL) constitute an important aspect of immune function and, as a result, play a key role in the rejection of grafted cells, tissues and organs. It is, therefore, essential to suppress CTL generation in a clinical situation in which CTL function is antithetical to the desired outcome as, for example, in transplantation. Cytotoxic T-lymphocytes have been studied for several years by many investigators and methods to evaluate CTL responses in vitro are well established.
As described below, CTL responses as affected by Vitamin D derivatives, were studied in vitro using cells from lab animals and human volunteers. Cytotoxic T-lymphocytes were generated from responder lymphoid cells in tissue culture medium during an incubation period of 6 days by exposure to foreign stimulator cells, i.e. from a genetically disparate source. A portion of the resultant effector cells were CTL capable of killing fresh cells related to the stimulator cells employed in the 6 day culture. To detect killing of cells by CTL, fresh target cells were incubated in excess ^51 chromium (as sodium chromate) until they were extensively labelled. Since target cells will retain the internalized radioisotope as long as they are viable but release the label when they are killed, CTL activity was assessed by quantitating the chromium released from target cells after a 4 or 18 hour incubation with CTL. Immunosuppression produced by Vitamin D derivatives was gauged as the ability to inhibit CTL responses during the initial incubation period relative to control cultures to which no Vitamin D derivative was added.
Female BALB/c By and C57BL/6 mice were obtained from Jackson Laboratories and were used between 8 and 10 weeks of age. Mice were given food and water ad libitum and were kept in a 12 hour light and 12 hour dark cycle.
For murine cultures, minimal essential medium with Hank's salts was supplemented to 1 millimolar with sodium pyruvate, to 0.1 millimolar with nonessential amino acids, to 2 millimolar with 1-glutamine, to 10% (v/v) with heat-inactivated fetal bovine serum, to 50 micrograms per ml with gentamicin, and to 1000 milligrams per liter with sodium bicarbonate and was used as tissue culture medium.
Stock solutions of Vitamin D derivatives were made in argon-saturated ethanol at a final concentration of 1×10^-2 molar, were covered with argon before sealing and were stored at -20° C. in the dark. Reduced lighting conditions were always employed when working with compounds. Compounds were diluted in tissue culture medium to 1×10^-4 molar and all subsequent dilutions were done in tissue culture medium containing 1% v/v ethanol. The final dilution into culture vessels was 1:10 thus keeping the vehicle concentration constant at 0.1% while varying the concentration of compound as tabulated in the results. For purposes of control, mixed leukocyte cultures were incubated in medium only (medium control) or in medium containing a final concentration of 0.1% ethanol (vehicle control).
Murine cytotoxic T-lymphocytes were generated in mixed leukocyte cultures by known methods. Specifically, single cell suspensions were prepared from spleens by gentle disruption in balanced salt solution (Hanks' balanced salt solution supplemented to 10%, v/v, with fetal bovine serum). After sedimentation on ice to remove particulate debris, cell suspensions were centrifuged at 400xg and were resuspended in fresh balanced salt solution. Cells to be used as stimulator cells were precluded from proliferating or generating cytotoxic T-lymphocytes by exposure to 1000 rads of gamma irradiation using a ^137 cesium source. […]

[3] = Test 1 (hexafluoro compounds), donor I, 1 × 10^-6 molar, 0.1% ethanol, effector to target 8:1
[4] = Test 1 (hexafluoro compounds), donor I, 1 × 10^-7 molar, 0.1% ethanol, effector to target 8:1

Question: How did the inhibition at 0.1 µM [1] turn out when `C=C1/C(=C\C=C2/CCC[C@]3(C)[C@@H]([C@H](C)CCCC(O)(C(F)(F)F)C(F)(F)F)CC[C@@H]23)C[C@@H](O)C[C@@H]1O` [26,26,26,27,27,27-hexafluoro-1α,25-dihydroxycholecalciferol] was run?
Answer: Its inhibition at 0.1 µM is 64%.

Question: And the inhibition at 1 µM [1]?
Answer: The inhibition at 1 µM was 77%.

Question: What about the “CTL activity (% specific ^51 Cr release)” value [1, 3] of the same compound?
Answer: Its value is 15 ± 2 % specific ^51 Cr release.

Question: And the “CTL activity (% specific ^51 Cr release)” value [1, 4]?
Answer: Its value is 23 ± 3 % specific ^51 Cr release.

Question: How did the inhibition at 1 µM [1, 3] turn out when `C=C1/C(=C\C=C2/CCC[C@]3(C)[C@@H]([C@H](C)C=CCC(O)(C(F)(F)F)C(F)(F)F)CC[C@@H]23)C[C@@H](O)C[C@@H]1O` [26,26,26,27,27,27-Hexafluoro-1α,25-dihydroxy-Δ^22-cholecalciferol] was run?
Answer: The inhibition at 1 µM was 80%.

Question: What about the inhibition at 0.1 µM [1, 4] of the same compound?
Answer: The inhibition at 0.1 µM was 64%.

Question: What about the “CTL activity (% specific ^51 Cr release)” value [1, 3] of the same compound?
Answer: Its value is 13 ± 0.1 % specific ^51 Cr release.

Question: What about the “CTL activity (% specific ^51 Cr release)” value [1, 4] of the same compound?
Answer: Its value is 23 ± 2 % specific ^51 Cr release.

Question: `C=C1/C(=C\C=C2/CCC[C@]3(C)[C@@H]([C@H](C)CC4CC(C)(O)C(=O)O4)CC[C@@H]23)C[C@@H](O)C[C@@H]1O` (stereo partly drawn) [1α,25-(OH)2 --D3-(26,23)-lactone, 1α,25-Dihydroxycholecalciferol-26,23-lactone] was tested. Which inhibition at 10 µM ([2]; Mus musculus, T-lymphocyte, Table I, 1 × 10^-5 molar, vs vehicle control, read-out: Inhibition of CTL activity (%)) did it give?
Answer: Its inhibition at 10 µM is 80%.

Question: And the inhibition at 1 µM ([2]; Mus musculus, T-lymphocyte, Table I, 1 × 10^-6 molar, vs vehicle control, read-out: Inhibition of CTL activity (%))?
Answer: The inhibition at 1 µM was 63%.

Question: What about the inhibition at 0.1 µM ([2]; Mus musculus, T-lymphocyte, Table I, 1 × 10^-7 molar, vs vehicle control, read-out: Inhibition of CTL activity (%)) of the same compound?
Answer: The inhibition at 0.1 µM was 37%.

Question: What about the inhibition at 0.01 µM ([2]; Mus musculus, T-lymphocyte, Table I, 1 × 10^-8 molar, vs vehicle control, read-out: Inhibition of CTL activity (%)) of the same compound?
Answer: The inhibition at 0.01 µM was 9%.

Question: What about the inhibition at 0.001 µM ([2]; Mus musculus, T-lymphocyte, Table I, 1 × 10^-9 molar, vs vehicle control, read-out: Inhibition of CTL activity (%)) of the same compound?
Answer: Its inhibition at 0.001 µM is 3%.

Question: And the inhibition at 0.0001 µM ([2]; Mus musculus, T-lymphocyte, Table I, 1 × 10^-10 molar, vs vehicle control, read-out: Inhibition of CTL activity (%))?
Answer: Its inhibition at 0.0001 µM is 7%.

Question: And the “CTL activity (% specific ^51 Cr release)” value ([2]; Table I, 1 × 10^-5 molar)?
Answer: Its value is 11 % specific ^51 Cr release.

Question: And the “CTL activity (% specific ^51 Cr release)” value ([2]; Table I, 1 × 10^-6 molar)?
Answer: The value was 20 % specific ^51 Cr release.

Question: And the “CTL activity (% specific ^51 Cr release)” value ([2]; Table I, 1 × 10^-7 molar)?
Answer: The value was 34 % specific ^51 Cr release.

Question: What about the “CTL activity (% specific ^51 Cr release)” value ([2]; Table I, 1 × 10^-8 molar) of the same compound?
Answer: The value was 49 % specific ^51 Cr release.

Question: What about the “CTL activity (% specific ^51 Cr release)” value ([2]; Table I, 1 × 10^-9 molar) of the same compound?
Answer: Its value is 52 % specific ^51 Cr release.

Question: What about the “CTL activity (% specific ^51 Cr release)” value ([2]; Table I, 1 × 10^-10 molar) of the same compound?
Answer: The value was 50 % specific ^51 Cr release.

Question: And the “suppression of murine cytotoxic T-lymphocyte responses (in words)” value ([2]; in vitro)?
Answer: Its value is “suppress murine cytotoxic T-lymphocyte responses”.
